Laboratory results reported in patent US6007814A, “Therapeutic uses of the hypervariable region of monoclonal antibody M195 and constructs thereof” (priority 1992, dated 1999).

Assays:
Assay type in all cases: cell-based, human
CFU-GM = assay: Clonogenic assay of normal bone marrow progenitors, CFU-GM; details: normal BM; 4HC 100 μM, VP-16 5 μg/ml; 1 hr at 37° C.; scored at day 14; mean ± SD vs control cultures
Procedure: (§1) Bone Marrow Cells. Bone marrow was aspirated from the posterior iliac crest of healthy volunteers after obtaining written informed consent and BM mononuclear cells were collected after Ficoll-Hypaque gradient (1.077 g/cm3).
(§2) Incubation Procedure and Culture Techniques. Tumor cells and normal BM cells were adjusted to a concentration of 2×10^6 /ml and 20×10^6 /ml, respectively. […] After completion of 1 hr incubation at 37° C., the cells were put on ice for five minutes and washed twice with RPMI supplemented with FCS. To simulate "ex vivo" BM purging conditions, the HL-60 cells were also incubated together with irradiated (3,000 cGy) BM cells (1:10 ratio). […] Cells were incubated at 37° C. in humidified atmosphere of 5% of CO2 in air and scored for colonies (>50 cells) after 7 days of incubation using an inverted microscope.
(§3) After treatment, normal bone marrow cells were assayed for colonies derived from CFU-GM, BFU-E and CFU-GEM as already described (150). […] Quadruplicate cultures were incubated as described above and the colonies were scored after 14 days of incubation. […] Colonies (>20 cells) were scored after 10 days of incubation.
(§4) DATA ANALYSIS. All experiments were performed three or more times and the mean+standard deviation (SD) values of each experiment were calculated. Colony counts after drug treatment were expressed as a percent of the untreated control cells.

BFU-E = assay: Clonogenic assay of normal bone marrow progenitors, BFU-E; details: normal BM; 4HC 100 μM, VP-16 5 μg/ml; 1 hr at 37° C.; scored at day 14; mean ± SD vs control cultures
Procedure: as §1, §2, §3, §4

HL-60 cell line = assay: HL-60 clonogenic assay (colony-forming inhibition) after ex vivo purging treatment; details: 4HC 100 μM, VP-16 5 μg/ml, 1 hr incubation at 37° C., colonies scored after 7 days, mean + SD
Procedure: Human Cell Line. HL-60 is a human acute promyelocytic leukemia cell line growing with a doubling time of 24 hours and a plating efficiency of 7-12% (148). The cell line was maintained in exponential growth in RPMI-1640 supplemented with 10% fetal calf serum (FCS-Hyclone, Logan, U.S.A.) 1% L-Glutamine at 37° C. in a humidified atmosphere of 5% CO2 air. Cell viability was always higher than 95% and cells were free of mycoplasma contamination.
as §2, §4

## O=P1(N(CCCl)CCCl)NC(OO)CCO1 (stereo not drawn) [4HC]
CFU-GM
  COLONY FORMING INHIBITION CFU-GM: 84 ± 10%
BFU-E
  COLONY FORMING INHIBITION BFU-E: 80.3 ± 12.5%
HL-60 cell line
  colony-forming inhibition: 99.5+0.8%
